Experimental findings from ChEMBL document CHEMBL1201862, “PubChem BioAssay data set” (2004) are described below.

SMILES strings stand for the structures.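 Assay format: 96-well plates, 48-hour exposure. GI50 marks 50% less growth.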 Calls of active or inactive are those of the source. Rule as the data show it: active = GI50 up to about 1.1 µM and inactive = higher.

Among the test systems are LXFL 529; DMS-114; SNB-78; RXF 631; HOP-18; DMS-273; XF498; DLD-1; M19-MEL.
Holding throughout (assay): NCI tumour cell line growth inhibition, 48 h

On to `S=c1nc(N2CCCCC2)ss1`, for which the GI50 with LXFL 529 is 15.1 µM (inactive); with DMS-114 it was 19.7 µM (inactive); in the assay on SNB-78 it was 32.2 µM (inactive); in the assay on RXF 631, 29.4 µM (inactive); in the assay on HOP-18, 40.6 µM (inactive); in the assay with DMS-273, 17.5 µM (inactive). Also, the values for the GI50 in the assay on XF498, with DLD-1 and in the assay on M19-MEL were 20.1 µM (inactive), 26.7 µM (inactive) and 18.2 µM (inactive), respectively.
`COS(=O)CCOC(=O)c1ccccc1SSc1ccccc1C(=O)OCCS(=O)OC` (centres undefined): the GI50 in the assay on LXFL 529 was 18.5 µM (inactive); with DMS-114, 16 µM (inactive); in the assay with SNB-78, > 100 µM (inactive); in the assay on HOP-18, > 100 µM (inactive); with DMS-273, 26.4 µM (inactive); in the assay on XF498, 29.8 µM (inactive). Moreover, the GI50 is 34.5 µM (inactive) in the assay with DLD-1 and 21.2 µM (inactive) in the assay on M19-MEL.
Consider `O=S(=O)(c1ccccc1)N1CCC1c1ccccc1` (centres undefined), for which the GI50 is 50.1 µM (inactive) in the assay on DMS-114; > 100 µM (inactive) in the assay with SNB-78; > 100 µM (inactive) with RXF 631; 51.5 µM (inactive) in the assay with HOP-18; > 100 µM (inactive) in the assay on DMS-273; 51.9 µM (inactive) with XF498. For the same compound, in the assay on M19-MEL, the GI50 is > 100 µM (inactive).
As for `Cc1ccccc1C1=[N+]([O-])c2ccc(Cl)cc2C1=O`, the GI50 in the assay with LXFL 529 is 12 µM (inactive); in the assay with RXF 631 it was 3.72 µM (inactive); in the assay on HOP-18, 14.1 µM (inactive); with XF498 it was 4.39 µM (inactive); with DLD-1, 7.41 µM (inactive); with M19-MEL, 8.05 µM (inactive).
On to `COC(=O)N/N=C/C(=C/Nc1ccccc1)[N+](=O)[O-]`, for which the GI50 in the assay with LXFL 529, in the assay with DMS-114, in the assay on RXF 631, in the assay with HOP-18, in the assay with DMS-273 and in the assay on XF498 was > 100 µM (inactive) throughout. Besides, the GI50 in the assay on DLD-1 and with M19-MEL was > 100 µM (inactive) throughout.
For the compound `Nc1ncnc2c1nc(Cl)n2[C@@H]1O[C@@H]2COP(=O)(O)O[C@H]2[C@H]1O` [TOCLADESINE], the GI50 in the assay on DMS-114 is 26.7 µM (inactive); with SNB-78, 165 µM (inactive); in the assay on HOP-18, > 109 µM (inactive); in the assay with DMS-273 it was 3.15 µM (inactive); in the assay with DLD-1, 3.81 µM (inactive); in the assay on M19-MEL it was > 300 µM (inactive).
As to `N#C[C-](C#N)[n+]1ccc(Cl)cc1`, the GI50 in the assay with LXFL 529 was 13.6 µM (inactive); in the assay on DMS-114, 13.4 µM (inactive); in the assay on SNB-78, 17.9 µM (inactive); in the assay with RXF 631, 17.4 µM (inactive); in the assay on DMS-273, 18.7 µM (inactive); in the assay on XF498, 19.3 µM (inactive). Also, the GI50 in the assay on DLD-1 is 11.5 µM (inactive); in the assay on M19-MEL it was 12.4 µM (inactive).
As to `COc1cccc2c1C(=O)c1c(O)c3c(c(O)c1C2=O)CC(O)(C(C)=O)CC3OC1CC([N+](C)(C)C)C(O)C(C)O1` (centres undefined), the GI50 was 64.9 µM (inactive) in the assay on LXFL 529; > 100 µM (inactive) in the assay with DMS-114; > 100 µM (inactive) with SNB-78; 31.1 µM (inactive) with RXF 631; > 100 µM (inactive) with HOP-18; 27.5 µM (inactive) in the assay with DMS-273. Moreover, the GI50 with XF498 was 10.7 µM (inactive); in the assay with DLD-1, 91.2 µM (inactive); with M19-MEL, 70.6 µM (inactive).
Turning to `CC(=O)NC1C(OCc2ccccc2)OC(COC(=O)CCCCCCCCCCNc2ccc([N+](=O)[O-])c3[nH]c4ccccc4c(=O)c23)C(O)C1OC(C)C(=O)NC(C)C(=O)NC(CCC(N)=O)C(=O)OCc1ccccc1` (centres undefined), the GI50 with LXFL 529, with DMS-114, in the assay with SNB-78, with HOP-18, with DMS-273 and in the assay with XF498 was > 100 µM (inactive) throughout. Besides, the GI50 in the assay with DLD-1 and in the assay on M19-MEL was > 100 µM (inactive) each time.
Take `CCN(CC)c1ccc(C(=C2C=CC(=[N+](CC)CC)C=C2)c2ccc(N(CC)CC)cc2)cc1`: the GI50 in the assay with DMS-114 is 0.0507 µM (active); with SNB-78 it was 0.398 µM (active); with RXF 631 it was 0.194 µM (active); in the assay on DMS-273, 0.137 µM (active); with XF498, 0.0296 µM (active); in the assay with DLD-1, 0.063 µM (active). For the same compound, in the assay on M19-MEL, the GI50 is 0.0948 µM (active).
With `CCN(CC)CCCNc1ncc(C)c2c1c1ccc3c(O)cccc3c1n2C`, the GI50 is 1.61 µM (inactive) in the assay with LXFL 529; 1.39 µM (inactive) in the assay with DMS-114; 14.2 µM (inactive) with SNB-78; 0.635 µM (active) in the assay on HOP-18; 0.76 µM (active) in the assay on DMS-273; 15.2 µM (inactive) in the assay with XF498. Besides, the GI50 in the assay with DLD-1 was 1.47 µM (inactive).
In the case of `Sc1ccccc1S`, the GI50 in the assay on LXFL 529, in the assay with DMS-114, in the assay with SNB-78, in the assay on RXF 631, with HOP-18 and in the assay on DMS-273 was > 100 µM (inactive) each time. Also, the GI50 with XF498, in the assay with DLD-1 and with M19-MEL was > 100 µM (inactive) throughout.
In the case of `CC1=C(C(=O)CC(=O)C(=O)Nc2cccc(Cl)c2C)Sc2ccccc2N1`, the GI50 with LXFL 529, in the assay on DMS-114, with SNB-78, with RXF 631, in the assay with HOP-18 and in the assay with XF498 was > 100 µM (inactive) throughout. For the same compound, the GI50 in the assay on DLD-1 and in the assay on M19-MEL was > 100 µM (inactive) throughout.
`CCCN(CCCCC(NC(C)=O)C(=O)NCc1ccccc1)C(=O)N(C)N=O` (centres undefined): the GI50 with LXFL 529, in the assay on DMS-114, in the assay with SNB-78, with DMS-273, with XF498 and in the assay on DLD-1 was > 100 µM (inactive) in each case. Besides, the GI50 in the assay with M19-MEL is > 100 µM (inactive).
For `C/C(=N\NC(=O)CC(=O)Nc1ccc(Cl)cc1)c1cc2ccccc2oc1=O`, the GI50 with DMS-114, with HOP-18, in the assay on DMS-273, with XF498, with DLD-1 and in the assay on M19-MEL was > 100 µM (inactive) throughout.
For the compound `Nc1nc(CCc2n[nH]c(N)n2)n[nH]1`, the GI50 with LXFL 529, with DMS-114, in the assay with SNB-78, in the assay on RXF 631, in the assay with DMS-273 and with DLD-1 was > 100 µM (inactive) throughout. The GI50 with M19-MEL is > 100 µM (inactive).
Take `C[C@]12CC[C@H](OC3OC(CO)C(O)C(O)C3O)C[C@H]1CC[C@@H]1[C@@H]2CC[C@]2(C)[C@@H](C3=CCOC3=O)CC[C@]12O` (some centres undefined) [ACTODIGIN]: the GI50 in the assay with DMS-114 was 10.2 µM (inactive); in the assay with SNB-78 it was 26.5 µM (inactive); in the assay on HOP-18, 50 µM (inactive); in the assay with DMS-273, 1.97 µM (inactive); with XF498, 1.44 µM (inactive); with DLD-1 it was 39.7 µM (inactive). Moreover, in the assay with M19-MEL, the GI50 was 11.7 µM (inactive).
With `Cc1ccc(S(=O)(=O)CNC(=S)CCCC(=S)NCS(=O)(=O)c2ccc(C)cc2)cc1`, the GI50 in the assay on LXFL 529 is 44.9 µM (inactive); with SNB-78, 78.9 µM (inactive); with RXF 631, 41 µM (inactive); in the assay with DMS-273 it was 44.2 µM (inactive); in the assay on XF498 it was > 100 µM (inactive); with DLD-1, > 100 µM (inactive). For the same compound, the GI50 in the assay with M19-MEL was > 100 µM (inactive).
